Assay results reported in patent publication US20040161419A1, “Placental stem cells and uses thereof” (priority 2002, published 2004).

Tests used:
placental stem cells [1] = test system: placental stem cells
Protocol: The cells were cultured for either 7-10 days or until the cultures grew to confluence. The cells were trypsinized and reseeded in 6 well plates. The cells were subjected to different culture conditions, having varying growth factors supplementing the DMEM or MEM based medium. […] Placental stem cells were cultured for an additional 14 days. At the end of 14 days, the cells were evaluated for the expression of human albumin, CYP3A4, A1AT, or C/EBP-alpha.

placental stem cells [2] = assay: Differentiation into cardiomyocytes (RT-PCR); assay type: cell-based, human; conditions: 1 mM, day 14 versus day 0, RT-PCR
Protocol: Placental stem cells (PSCs) were cultured in the presence of L-Ascorbic acid 2-phosphate (1 mM) for 14 days. Total RNA was extracted on day 0 and day 14 and used for RT-PCR analysis. Cardiomyocyte specific genes primers were designed specifically for cardiac transcription factor GATA-4, atrial myosin light chain type 2 (MLC-2A), ventricular myosin light chain type 2 (MLC-2V), human atrial natriuretic peptide (hANP), and cardiac troponin T (cTnT). The PCR reaction conditions were 45 cycles/57° C. annealing temperature. The PCR products were size fractioned by 2.5% agarose gel electrophoresis.

CYP1A1/2 = assay: EROD assay (ethoxyresorufin-o-deethylase); assay type: cell-based; conditions: prior exposure 50 uM; human hepatocytes and hepatocytes derived from PSCs
Protocol: Human hepatocytes were cultured using the conditions of Strom et al. Methods in Enzymology 272:388-401 (1996).
An EROD assay which measures the conversion of ethoxy-resorufin to hydroxyresorufin was used to detect expression of CYP1A1 or CYP1A2 in human hepatocytes and hepatocytes derived from placental stem cells (Kelley et al. J. Biomolecular Screening 5:249-253 (2000). CYP1A activity in these cells was induced by exposing the hepatocytes to beta-naphthoflavone (50 uM).

placental stem cells [3] = assay: Differentiation into neural cells; assay type: cell-based, human
Protocol: […] Immunohistochemical analysis of the expression of the different genes was conducted with antibodies specific to the human proteins.

placental stem cells [4] = assay: Differentiation into pancreatic cells (RT-PCR); assay type: cell-based, human; conditions: on Matrigel, 14 days
Protocol: Placental stem cells were maintained in standard growth media for 7 days and then trypsinized and seeded on cultures previously coated with matrigel (MG), a commercially available form of basement membrane proteins. Cultures were coated with 20% (v/v; matrigel to media) or 100% matrigel with essentially identical results. […] After 10-14 days the cells were lysed and RNA was isolated, and reverse transcriptase-PCR analysis was conducted with PCR primers specific for Pax 6, PDX-1 Nkx2.2, insulin, glucagon and an internal control, beta-actin.

Compound: FGF 2: fibroblast growth factor 2, media supplement
- liver specific gene expression (albumin, CYP3A4, A1AT, C/EBP-alpha) (placental stem cells [1]): did not enhance liver specific gene expression

Compound: O=C1O[C@H]([C@@H](O)CO)C(O)=C1OP(=O)(O)O [L-Ascorbic acid 2-phosphate]
- expression of MLC-2A and MLC-2V genes (placental stem cells [2]): significantly up-regulated

Compound: O=c1cc(-c2ccccc2)oc2ccc3ccccc3c12 [beta-naphthoflavone (BNF), beta-naphthoflavone]
- effect on EROD activity (CYP1A1/2): induced

Compound: hepatocyte growth factor (HGF): hepatocyte growth factor, media supplement
- liver specific gene expression (albumin, CYP3A4, A1AT, C/EBP-alpha) (placental stem cells [1]): did not enhance liver specific gene expression

Compound: CC1=C(/C=C/C(C)=C/C=C/C(C)=C/C(=O)O)C(C)(C)CCC1 [all trans retinoic acid, all-trans retinoic acid]
- expression of GFAP, beta-tubulin III and CNP (placental stem cells [3]; immunofluorescence, FIG. 9A): express
- expression of nestin and glutamic acid decarboxylase (GAD) (placental stem cells [3]; over 7 days of culture, FIG. 9B): increase

Compound: NC(=O)c1cccnc1 [nicotinamide]
- expression of pancreatic markers (insulin, glucagon, PDX-1, Pax6, Nkx2.2) (placental stem cells [4]): express insulin and glucagon
